# Measured values taken from US10351609B2, “Cell-based assay for determining mTOR activity” (Medical Diagnostic Laboratories, LLC, priority 2016, dated 2019).
# Where two headings read alike, the source gives them in different places.
# Assays:
# mTOR [1] = molecular target: T1, mTOR (Homo sapiens, UniProt P42345); experiment: 3A1 clone with stable expression of SB-eIF4E/LB-4E-BP2 (stable pool and single-cell clones); assay type: cell-based; conditions: 3A1 stable cell line pool expressing SB-eIF4E/LB-4E-BP2, FIG. 12
# Experimental: Taking the 3A1 clone, we created a stable cell line pool (cells that underwent a minimum of 2 weeks of hygromycin selection) with stable expression of SB-eIF4E/ LB-4E-BP2.
# Three to five days after transfection, the transfected cells were trypsinized and replated on to 6-count of 10 cm plates containing 300 μg/ml of hygromycin (ThermoFisher). For 7 days, media was replaced every 2-3 days with fresh hygromycin, after which cells were trypsinized, pooled and concentrated, and counted for plating as single cells on to 96-well plates. Fifty ml containing 400 cells were plated on to 5-count of 96-well plates with each well containing 100 μl of media+cell. DMEM conditioned with previous incubation with HEK293 cells was saved, filtered, and used for single-cell plating. The remainder of the hygromycin treated cells was then pooled and used as “stable pools” for experimentation.
# S2035I mTOR [2] = molecular target: T2, S2035I mTOR (Homo sapiens, UniProt P42345, S2035I); experiment: B10 clone stably expressing SB-eIF4E, transient LB-4E-BP2 and S2035I mTOR; assay type: cell-based; conditions: FIG. 18
# T2 construct: our assay has the ability to measure the function of full-length mTOR and its genetic variants; expressed in transfected cells
# WT mTOR [3] = molecular target: T3, WT mTOR (Homo sapiens, UniProt P42345); experiment: 3A1 clone stably expressing SB-eIF4E, transiently expressing LB-4E-BP2 and WT mTOR; assay type: cell-based; conditions: 3A1 stably SB-eIF4E, concentration curves at least 5 logs, FIG. 16
# T3 construct: our assay has the ability to measure the function of full-length mTOR and its genetic variants; expressed in transfected cells
# Excerpt: (§1) To overcome this issue, we created a stable cell pool with the 3A1 clone, stably expressing only SB-eIF4E.
# mTOR [4] = molecular target: T1, mTOR; assay type: cell-based; conditions: 3A1 clone transiently transfected with SB-eIF4E/LB-4E-BP2, FIG. 11
# Excerpt: We compared single-cell clone termed “3A1” (FIG. 10A,B) with single-cell clone termed “1C3” (FIG. 10C,D) in the assay containing either LB-4E-BP1(Figure 10A,C) or LB-4E-BP2 (FIG. 10B,D).
# S2035I mTOR [5] = molecular target: T2, S2035I mTOR; experiment: 3A1 clone stably expressing SB-eIF4E, transiently expressing LB-4E-BP2 and S2035I mTOR; assay type: cell-based; conditions: 3A1 stably SB-eIF4E, concentration curves at least 5 logs, FIG. 16
# Excerpt: as §1
# [6] = system: phosphorylation of 4E-BP1; conditions: read-out: reported IC50 in inhibiting phosphorylation of 4E-BP1; Western blot; Sedrani et al., 1998; cited from earlier work
# cellular proliferation = conditions: Hsieh et al., 2012; read-out: EC50 for the inhibition of cellular proliferation; cited from earlier work
# WT mTOR [7] = molecular target: T3, WT mTOR; experiment: B10 clone (4E-BP dKO, MTOR genomic modification) stably expressing SB-eIF4E, transient LB-4E-BP2 and WT mTOR; assay type: cell-based; conditions: FIG. 18
# Excerpt: With the goal of our assay to measure the effects of mTOR mutations in combination with different types of mTOR inhibitors, we performed our assay using the B10 cell clone stably expressing SB-eIF4E and transiently expressing LB-4E-BP2 and either WT or L2185A mTOR.
# [8] = system: phosphorylation of the ribosomal protein S6; conditions: Guichard et al., 2015; read-out: IC50 for inhibition of phosphorylation of the ribosomal protein S6; cited from earlier work
Structure (SMILES),concentration dependence of luminescence (mTOR [1]),concentration dependence of signal (S2035I mTOR [2]),concentration dependence of signal (WT mTOR [3]),concentration dependence of luminescence (mTOR [4]),concentration dependence of signal (S2035I mTOR [5]),IC50 [6] [nM],EC50 (cellular proliferation) [nM],concentration dependence of signal (WT mTOR [7]),IC50 [8] [nM]
CO[C@@H](C)Cn1c(=O)n(C)c2cnc3ccc(-c4cncc(C(C)(C)O)c4)cc3c21 [LY3023414],concentration-dependent increase in luminescence,,,,,,,,
CO[C@H]1C[C@@H]2CC[C@@H](C)[C@@](O)(O2)C(=O)C(=O)N2CCCC[C@H]2C(=O)O[C@H]([C@H](C)C[C@@H]2CC[C@@H](OCCO)[C@H](OC)C2)CC(=O)[C@H](C)/C=C(\C)[C@@H](O)[C@@H](OC)C(=O)[C@H](C)C[C@H](C)/C=C/C=C/C=C/1C [everolimus],concentration-dependent activation of luminescence,cleaner difference between the WT and S2035I mTOR,concentration-dependent increase in signal,concentration dependent activation,rapamycin resistance,1.6 to 2.4,,,
CO[C@H]1CC[C@H](N2C(=O)CNc3ncc(-c4ccc(C(C)(C)O)nc4)nc32)CC1 [CC223],concentration-dependent increase in luminescence,,,,,,,,
CCc1cncnc1N1CCN(Cc2nc3ccc(C(F)(F)F)cc3[nH]2)CC1 [PF4708671],did not,,,,,,,,
CC(C)n1nc(-c2ccc3oc(N)nc3c2)c2c(N)ncnc21 [INK128],concentration-dependent activation of luminescence,concentration-dependent increase for both mTORs,concentration-dependent increase in signal,concentration dependent activation,concentration-dependent increase,,17,concentration-dependent increase for both mTORs,
CNC(=O)c1cccc(-c2ccc3c(N4CCOC[C@@H]4C)nc(N4CCOC[C@@H]4C)nc3n2)c1 [AZD2014],concentration-dependent activation of luminescence,concentration-dependent increase for both mTORs,concentration-dependent increase in signal,concentration dependent activation,concentration-dependent increase,,,concentration-dependent increase for both mTORs,210
